Assay results: patent publication US9139557B2, “Carboxamide compounds and their use as calpain inhibitors” (Abbott GmbH & Co. KG, priority 2006, dated 2015)

Key:
Assay type in all cases: biochemical
cathepsin B = biological target: T1, cathepsin B (Homo sapiens, UniProt P07858); experiment: Cathepsin B enzyme inhibition in vitro (kinetic fluorescence assay); details: Ki(cathepsin B)/Ki(calpain) ratio
T1 construct: cathepsin B—isolated from human liver; purchased Calbiochem 219362; host or cells: human liver (tissue isolate)
Outline: (§1)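 Kinetic fluorescence (ex 390/em 460 nm), room temperature: calpain-I (human erythrocyte, 20 nM) with 100 µM Suc-Leu-Tyr-AMC, imidazole/CaCl2 pH 7.3; cathepsin B (liver, 0.25 nM), 100 µM Z-Phe-Arg-AMC; L (liver, 1 nM), 2 µM Z-Phe-Arg-AMC; S (recombinant, 0.5 nM), 20 µM Z-Val-Val-Arg-AMC; cathepsins in MES/EDTA/cysteine pH 6.0. Apparent Ki via Cheng-Prusoff, 2–4 curves averaged.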

cathepsin K = biological target: T2, cathepsin K (Homo sapiens, UniProt P43235); experiment: Cathepsin K enzyme inhibition in vitro (kinetic fluorescence assay); details: Ki(cathepsin K)/Ki(calpain) ratio
T2 construct: purchased Calbiochem 342001; host or cells: E. coli
T2 sequence (P43235 115-329): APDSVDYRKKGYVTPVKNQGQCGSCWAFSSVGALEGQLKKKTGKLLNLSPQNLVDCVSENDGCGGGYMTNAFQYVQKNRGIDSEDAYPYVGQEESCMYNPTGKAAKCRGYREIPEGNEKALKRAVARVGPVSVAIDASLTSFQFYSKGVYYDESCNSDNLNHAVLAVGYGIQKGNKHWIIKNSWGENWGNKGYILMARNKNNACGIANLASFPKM

cathepsin L = biological target: T3, cathepsin L (Homo sapiens, UniProt P07711); experiment: Cathepsin L enzyme inhibition in vitro (kinetic fluorescence assay); details: Ki(cathepsin L)/Ki(calpain) ratio
T3 construct: cathepsin L—isolated from human liver; purchased Calbiochem 219402; host or cells: human liver (tissue isolate)
Outline: as §1

cathepsin S = biological target: T4, cathepsin S (Homo sapiens, UniProt P25774); experiment: Cathepsin S enzyme inhibition in vitro (kinetic fluorescence assay); details: Ki(cathepsin S)/Ki(calpain) ratio
T4 construct: purchased Calbiochem 219343; host or cells: E. coli
Outline: as §1

T4 sequence (P25774 115-331): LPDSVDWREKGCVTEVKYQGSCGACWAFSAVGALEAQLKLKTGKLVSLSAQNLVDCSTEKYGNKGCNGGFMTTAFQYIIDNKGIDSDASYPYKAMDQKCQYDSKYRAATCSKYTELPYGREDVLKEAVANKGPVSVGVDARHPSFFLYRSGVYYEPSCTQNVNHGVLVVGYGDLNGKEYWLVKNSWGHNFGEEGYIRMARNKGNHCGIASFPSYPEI
T3 sequence (P07711 114-333): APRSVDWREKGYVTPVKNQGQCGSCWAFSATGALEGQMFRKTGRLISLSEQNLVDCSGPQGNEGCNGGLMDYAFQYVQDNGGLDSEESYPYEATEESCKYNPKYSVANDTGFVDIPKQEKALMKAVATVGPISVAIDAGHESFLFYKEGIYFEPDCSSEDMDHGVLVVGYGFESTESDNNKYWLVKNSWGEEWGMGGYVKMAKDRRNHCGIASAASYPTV

Compound | Sel cat. B (cathepsin B) | Sel cat. K (cathepsin K) | Sel cat. L (cathepsin L) | Sel cat. S (cathepsin S)
NC(=O)C(=O)C(Cc1ccccc1)NC(=O)c1cccnc1-n1ccc(-c2c(F)cccc2F)n1 (stereo not shown) [Example 85, N-[3-Amino-2,3-dioxo-1-(phenylmethyl)propyl]-2-[3-(2,6-difluorophenyl)-1H-pyrazol-1-yl]pyridine-3-carboxamide] | + (+ means 10≦Ki(cathepsin B)/Ki(calpain)<30) | ++ (++ means a Ki(cathepsin K)/Ki(calpain) ratio of ≧30) | ++ (++ means a Ki(cathepsin L)/Ki(calpain) ratio of ≧50) | ++ (++ means a Ki(cathepsin S)/Ki(calpain) ratio of ≧100)
CC(C)c1ccc(-c2ccn(-c3ncccc3C(=O)NC(Cc3ccccc3)C(=O)C(N)=O)n2)cc1 (stereo not shown) [Example 87, N-[3-Amino-2,3-dioxo-1-(phenylmethyl)propyl]-2-{3-[4-(1-methylethyl)phenyl]-1H-pyrazol-1-yl}pyridine-3-carboxamide] | ++ (++ means a Ki(cathepsin B)/Ki(calpain) ratio of ≧30) | ++ (++ means a Ki(cathepsin K)/Ki(calpain) ratio of ≧30) | ++ (++ means a Ki(cathepsin L)/Ki(calpain) ratio of ≧50) | ++ (++ means a Ki(cathepsin S)/Ki(calpain) ratio of ≧100)
Cl.NC(=O)C(=O)C(Cc1cccnc1)NC(=O)c1cccnc1-n1ccc(-c2ccccc2)n1 (stereo not shown) [Example 88, N-[3-Amino-2,3-dioxo-1-(pyridin-3-ylmethyl)propyl]-2-(3-phenyl-1H-pyrazol-1-yl)pyridine-3-carboxamide hydrochloride] | + (+ means 10≦Ki(cathepsin B)/Ki(calpain)<30) | ++ (++ means a Ki(cathepsin K)/Ki(calpain) ratio of ≧30) | ++ (++ means a Ki(cathepsin L)/Ki(calpain) ratio of ≧50) | ++ (++ means a Ki(cathepsin S)/Ki(calpain) ratio of ≧100)
COc1ccccc1-c1ccn(-c2ncccc2C(=O)NC(Cc2ccccc2)C(=O)C(N)=O)n1 (stereo not shown) [Example 90, N-[3-Amino-2,3-dioxo-1-(phenylmethyl)propyl]-2-{3-[2-(methyloxy)phenyl]-1H-pyrazol-1-yl}pyridine-3-carboxamide] | ++ (++ means a Ki(cathepsin B)/Ki(calpain) ratio of ≧30) | + (+ means 10≦Ki(cathepsin K)/Ki(calpain)<30) | ++ (++ means a Ki(cathepsin L)/Ki(calpain) ratio of ≧50) | ++ (++ means a Ki(cathepsin S)/Ki(calpain) ratio of ≧100)
NC(=O)C(=O)C(Cc1ccccc1)NC(=O)c1cccnc1-n1ccc(-c2cc(F)cc(F)c2)n1 (stereo not shown) [Example 91, N-[3-Amino-2,3-dioxo-1-(phenylmethyl)propyl]-2-[3-(3,5-difluorophenyl)-1H-pyrazol-1-yl]pyridine-3-carboxamide] | ++ (++ means a Ki(cathepsin B)/Ki(calpain) ratio of ≧30) | + (+ means 10≦Ki(cathepsin K)/Ki(calpain)<30) | ++ (++ means a Ki(cathepsin L)/Ki(calpain) ratio of ≧50) | ++ (++ means a Ki(cathepsin S)/Ki(calpain) ratio of ≧100)
COc1ccc(CC(NC(=O)c2cccnc2-n2ccc(-c3ccccc3F)n2)C(=O)C(N)=O)cc1 (stereo not shown) [Example 92, N-(3-Amino-1-{[4-(methyloxy)phenyl]methyl}-2,3-dioxopropyl)-2-[3-(2-fluorophenyl)-1H-pyrazol-1-yl]pyridine-3-carboxamide] | ++ (++ means a Ki(cathepsin B)/Ki(calpain) ratio of ≧30) | + (+ means 10≦Ki(cathepsin K)/Ki(calpain)<30) | ++ (++ means a Ki(cathepsin L)/Ki(calpain) ratio of ≧50) | ++ (++ means a Ki(cathepsin S)/Ki(calpain) ratio of ≧100)
Cc1ccccc1-c1ccn(-c2ncccc2C(=O)NC(Cc2ccccc2)C(=O)C(N)=O)n1 (stereo not shown) [Example 93, N-[3-Amino-2,3-dioxo-1-(phenylmethyl)propyl]-2-[3-(2-methylphenyl)-1H-pyrazol-1-yl]pyridine-3-carboxamide] | ++ (++ means a Ki(cathepsin B)/Ki(calpain) ratio of ≧30) | + (+ means 10≦Ki(cathepsin K)/Ki(calpain)<30) | ++ (++ means a Ki(cathepsin L)/Ki(calpain) ratio of ≧50) | ++ (++ means a Ki(cathepsin S)/Ki(calpain) ratio of ≧100)
